According to the supplement of paper PMC10307832:

Experiments:
Assay in all cases: relative viability (nuclei count vs DMSO), 5 days (fraction); higher = more cells survive
Omipalisib = compound: COc1ncc(-c2ccc3nccc(-c4ccnnc4)c3c2)cc1NS(=O)(=O)c1ccc(F)cc1F [Omipalisib]
Summary of the method: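 Lung cancer cell lines in 1536-well plates were exposed by pinning to five library-drug doses (not always all listed) √10 apart, following an overnight hold at 37 °C. MetaXpress counted Hoechst-stained nuclei from 4× images taken after 5 days without medium change. Viability is the median ratio of treated-well to vehicle-well nuclei across plates. Plates required control CV below 25% and at least one doubling.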

Omipalisib + Crizotinib = compound: COc1ncc(-c2ccc3nccc(-c4ccnnc4)c3c2)cc1NS(=O)(=O)c1ccc(F)cc1F [Omipalisib] + C[C@@H](Oc1cc(-c2cnn(C3CCNCC3)c2)cnc1N)c1c(Cl)ccc(F)c1Cl [Crizotinib] (partner 1 µM)
Summary of the method: (§1)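 Relative viability is defined as nuclei in treated wells over nuclei in vehicle wells. Duplicate plates were run and medians reported. Lung cancer cell lines in 1536-well plates were dosed by pin tool one day after seeding, with one drug or with a fixed anchor-drug dose plus five library-drug doses (not always all listed) in √10 steps, and nuclei were counted after 5 days.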

Omipalisib + AZD7762 = compound: COc1ncc(-c2ccc3nccc(-c4ccnnc4)c3c2)cc1NS(=O)(=O)c1ccc(F)cc1F [Omipalisib] + NC(=O)Nc1cc(-c2cccc(F)c2)sc1C(=O)N[C@H]1CCCNC1 [AZD7762] (partner 0.2 µM)
Summary of the method: as §1

Omipalisib + Olaparib = compound: COc1ncc(-c2ccc3nccc(-c4ccnnc4)c3c2)cc1NS(=O)(=O)c1ccc(F)cc1F [Omipalisib] + O=C(c1cc(Cc2n[nH]c(=O)c3ccccc23)ccc1F)N1CCN(C(=O)C2CC2)CC1 [Olaparib] (partner 8 µM)
Summary of the method: as §1

Omipalisib + Alpelisib = compound: COc1ncc(-c2ccc3nccc(-c4ccnnc4)c3c2)cc1NS(=O)(=O)c1ccc(F)cc1F [Omipalisib] + Cc1nc(NC(=O)N2CCC[C@H]2C(N)=O)sc1-c1ccnc(C(C)(C)C(F)(F)F)c1 [Alpelisib] (partner 2 µM)
Summary of the method: as §1

Omipalisib + Phenformin = compound: COc1ncc(-c2ccc3nccc(-c4ccnnc4)c3c2)cc1NS(=O)(=O)c1ccc(F)cc1F [Omipalisib] + N=C(N)NC(=N)NCCc1ccccc1 [Phenformin] (partner 250 µM)
Summary of the method: as §1

Row | Cell Line | relative viability (Omipalisib; 0.0003 µM) | relative viability (Omipalisib; 0.003 µM) | relative viability (Omipalisib; 0.03 µM) | relative viability (Omipalisib + Crizotinib; first compound 0.0003 µM) | relative viability (Omipalisib + Crizotinib; first compound 0.003 µM) | relative viability (Omipalisib + Crizotinib; first compound 0.03 µM) | relative viability (Omipalisib + AZD7762; first compound 0.0003 µM) | relative viability (Omipalisib + AZD7762; first compound 0.003 µM) | relative viability (Omipalisib + AZD7762; first compound 0.03 µM) | relative viability (Omipalisib + Olaparib; first compound 0.0003 µM) | relative viability (Omipalisib + Olaparib; first compound 0.003 µM) | relative viability (Omipalisib + Olaparib; first compound 0.03 µM) | relative viability (Omipalisib + Alpelisib; first compound 0.0003 µM) | relative viability (Omipalisib + Alpelisib; first compound 0.003 µM) | relative viability (Omipalisib + Alpelisib; first compound 0.03 µM) | relative viability (Omipalisib + Phenformin; first compound 0.0003 µM) | relative viability (Omipalisib + Phenformin; first compound 0.003 µM) | relative viability (Omipalisib + Phenformin; first compound 0.03 µM)
1 | HCC-827 | 1.04 | 1.04 | 0.666 | 0.952 | 0.885 | 0.373 | 0.239 | 0.213 | 0.143 | 0.593 | 0.6 | 0.243 | 1.06 | 0.943 | 0.389 | 0.402 | 0.343 | 0.271
2 | HOP-62 | 1.03 | 1.06 | 0.753 | 0.817 | 1 | 0.693 | 0.532 | 0.55 | 0.438 | 0.264 | 0.548 | 0.486 | 0.911 | 0.926 | 0.666 | 0.659 | 0.718 | 0.639
3 | LC-2-ad | 0.942 | 0.831 | 0.556 | 0.478 | 0.395 | 0.253 | 0.855 | 0.762 | 0.464 | 0.779 | 0.796 | 0.639 | 0.858 | 0.856 | 0.425 | 0.438 | 0.368 | 0.258
4 | LCLC-97TM1 | 1.03 | 0.586 | 0.203 | 0.243 | 0.159 | 0.11 | 0.158 | 0.36 | 0.116 | 0.383 | 0.291 | 0.0739 | 0.238 | 0.227 | 0.145 | 0.38 | 0.338 | 0.159
5 | LCLC-103H | 1.04 | 0.745 | 0.617 | 1.07 | 0.922 | 0.63 | 0.747 | 0.623 | 0.402 | 0.781 | 0.726 | 0.397 | 0.96 | 0.889 | 0.643 | 0.319 | 0.29 | 0.174
6 | LK-2 | 0.767 | 0.435 | 0.345 | 0.241 | 0.234 | 0.247 | 0.382 | 0.148 | 0.134 | 0.747 | 0.29 | 0.238 | 0.962 | 0.608 | 0.521 | 0.532 | 0.128 | 0.144
7 | NCI-H520 | 0.787 | 0.588 | 0.252 | 0.636 | 0.622 | 0.193 | – | – | – | 0.295 | 0.294 | 0.139 | 0.802 | 0.608 | 0.292 | 0.405 | 0.209 | 0.2
8 | NCI-H661 | 1 | 0.923 | 0.82 | 0.969 | 0.94 | 0.703 | – | – | – | 0.744 | 0.659 | 0.604 | 0.804 | 0.612 | 0.478 | 0.264 | 0.264 | 0.224
9 | NCI-H1395 | 0.901 | 0.706 | 0.649 | – | – | – | 0.424 | 0.398 | 0.379 | 0.501 | 0.421 | 0.371 | 1 | 0.906 | 0.7 | 0.414 | 0.403 | 0.393
10 | NCI-H1650 | 0.861 | 0.946 | 0.613 | 0.794 | 1.16 | 0.717 | – | – | – | 0.774 | 0.807 | 0.576 | – | – | – | 0.371 | 0.257 | 0.168
11 | NCI-H1793 | 0.74 | 0.514 | 0.317 | – | – | – | 0.402 | 0.215 | 0.263 | 0.576 | 0.368 | 0.196 | 0.577 | 0.435 | 0.292 | 0.372 | 0.22 | 0.188
12 | NCI-H2009 | 1.06 | 1.02 | 0.755 | 0.989 | 0.923 | 0.742 | – | – | – | 0.705 | 0.511 | 0.378 | 1.16 | 1.12 | 0.994 | 0.511 | 0.487 | 0.316
13 | NCI-H2023 | 0.847 | 0.535 | 0.203 | 0.569 | 0.407 | 0.18 | – | – | – | 0.428 | 0.414 | 0.185 | 0.513 | 0.523 | 0.344 | 0.379 | 0.275 | 0.164
14 | NCI-H2228 | 0.858 | 0.682 | 0.352 | 0.335 | 0.337 | 0.215 | – | – | – | 0.698 | 0.441 | 0.179 | 0.764 | 0.657 | 0.251 | 0.258 | 0.142 | 0.122
15 | NCI-H2342 | 0.741 | 0.63 | 0.534 | – | – | – | 0.47 | 0.434 | 0.383 | 0.411 | 0.376 | 0.239 | – | – | – | 0.56 | 0.482 | 0.424
16 | SK-LU-1 | 0.914 | 0.778 | 0.569 | 0.91 | 0.712 | 0.515 | – | – | – | 0.455 | 0.304 | 0.366 | 0.937 | 0.838 | 0.642 | 0.47 | 0.299 | 0.273
17 | SK-MES-1 | 0.927 | 0.607 | 0.452 | 0.954 | 0.656 | 0.611 | – | – | – | 0.674 | 0.52 | 0.26 | 0.847 | 0.66 | 0.458 | 0.66 | 0.618 | 0.428
18 | SW 900 | 0.886 | 0.768 | 0.591 | – | – | – | 0.748 | 0.381 | 0.342 | 0.862 | 0.544 | 0.417 | – | – | – | 0.513 | 0.321 | 0.424
19 | SW 1573 | 0.731 | 0.713 | 0.492 | 0.812 | 0.628 | 0.379 | – | – | – | 0.319 | 0.332 | 0.203 | 0.642 | 0.511 | 0.43 | 0.238 | 0.227 | 0.169
20 | UMC-11 | 0.886 | 0.643 | 0.823 | 0.491 | 0.588 | 0.434 | – | – | – | 0.332 | 0.548 | 0.376 | 0.965 | 0.829 | 0.822 | 0.338 | 0.329 | 0.316
